# In patent publication US12377194B2, “JAB1 inhibitory compositions for ossification and methods related thereto” (Emory University, priority 2011, dated 2025):
# Legend:
# [1] = system: Harlan athymic rats; assay: Collagen disc implantation with Jab1-blockers and BMP-2 in rat ectopic model; format: in vivo; set-up: Average (Xray score): scale not given here; conditions: 100 ul, chest implant, 4 weeks
# Description: Harlan athymic rats about 5-6 weeks of age were chest implanted with a collagen disc and doses of G8 and R13 in combination with BMP-2. After 4 weeks the rats were sacrificed and evaluated for bone growth.
# [2] = system: Mouse C2C12 cells; assay: Alkaline phosphatase (ALP) assay, cell based screen of JAB1 blockers with BMP-2; conditions: cell based assay (FIG. 1-4)
# Method: Mouse C2C12 cells and Dulbecco's modified Eagle's medium (DMEM) were purchased from ATCC (Manassas, VA). The non-heat inactivated fetal bovine serum (FBS) was purchased from HyClone Laboratories, Inc. (Logan, UT). The C2C12 cells at passages 4 to 7 were subcultured in T-75 cm2 flasks in DMEM supplemented with 10% FBS at 37° C. in 5% CO2 with humidification. When the flasks reached 80% confluence, the cells were trypsinized and seeded in triplicate at 200,000 cells/well in a 6-well plate for quantitative real-time RT-PCR and alkaline phosphatase (ALP) assays or at 50,000 cells/well in a 12-well plate for the dual-luciferase reporter assay.
# The C2C12 cells were plated at 200,000 cells/well in 6-well plates and grown overnight in DMEM containing 10% FBS. On day 2, the culture medium was replaced with DMEM containing 2% FBS and the cells were treated with various concentrations of the JAB1-interacting compound for 24 hours. On day 3, the medium was replaced with fresh DMEM containing 2% FBS and the cells were treated with 50 ng/ml of BMP-2 for 72 hours. The cells were washed with phosphate-buffered saline (PBS) and lysed by addition of lysis buffer (10 mM Tris-HCl pH 8.0, 1 mM MgCl2 and 0.5% Triton X-100). The cell lysates were centrifuged for 5 minutes at 13,000×g. The supernatant was removed and the aliquots were assayed for ALP activity and protein amount. The ALP activity was measured in triplicate using an ALP assay kit (Sigma-Aldrich, St. Louis, MO) in microtiter plates. The protein amount was determined with Bio-Rad protein assay reagent (Bio-Rad, Hercules, CA) using bovine serum albumin (BSA) as a standard. The ALP activity (nmoles of p-nitrophenol per ml) was normalized to the protein amount (nmoles of p-nitrophenol per μg).
# [3] = compound dose 2 mM + BMP-2 1.5 ug
# [4] = compound dose 4 mM + BMP-2 1.5 ug
# [5] = compound dose 6 mM + BMP-2 1.5 ug
# [6] = compound dose 8 mM + BMP-2 1.5 ug
# [7] = compound dose 11 mM + BMP-2 1.5 ug
# [8] = compound dose 15 mM + BMP-2 1.5 ug
# [9] = compound dose 19 mM + BMP-2 1.5 ug
Compound,"Average (Xray score) [1, 3]","Results (bone made, n of 4) [1, 3]","Average (Xray score) [1, 4]","Results (bone made, n of 4) [1, 4]","Average (Xray score) [1, 5]","Results (bone made, n of 4) [1, 5]","Average (Xray score) [1, 6]","Results (bone made, n of 4) [1, 6]","Average (Xray score) [1, 7]","Results (bone made, n of 4) [1, 7]","Average (Xray score) [1, 8]","Results (bone made, n of 4) [1, 8]","Average (Xray score) [1, 9]","Results (bone made, n of 4) [1, 9]",ALP activity [2]
"COc1cc2nccc(Oc3ccc(Br)c(C)c3)c2cc1OC [#SRJ-G8, 4-(4-bromo-3-methylphenoxy)-6,7-dimethoxyquinoline]",3.5,Bone made (4 of 4),3.75,Bone made (4 of 4),3,Bone made (3 of 4),4,Bone made (4 of 4),1.25,Bone made (1 of 4),1.75,Bone made (2 of 4),0.75,Bone made (1 of 4),improving ALP activity
"COc1cc(OC)c(C=C2C(=O)Nc3cc(Cl)ccc32)c(OC)c1 [#SRJ-R13, 6-chloro-3-(2,4,6-trimethoxybenzylidene)indolin-2-one]",1.75,Bone made (3 of 4),2.25,Bone made (4 of 4),–,No bone (0 of 4),–,No bone (0 of 4),–,No bone (0 of 4),–,No bone (0 of 4),–,No bone (0 of 4),improving ALP activity
"COc1cc(Nc2nccc(Nc3ccc(F)cc3)n2)cc(OC)c1 [P5, N^2-(3,5-dimethoxyphenyl)-N^4-(4-fluorophenyl)pyrimidine-2,4-diamine]",–,–,–,–,–,–,–,–,–,–,–,–,–,–,improving ALP activity
